Some test systems named below: EKVX NSCLC; MDA-MB-435; SF-295 CNS; SNB-19 CNS; SNB-75 CNS; SR leukemia; SW-620 colon; UO-31 renal; HCC-2998 colon; UACC-62 melanoma.
What all share (assay): NCI tumour cell line growth inhibition, 48 h

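Compound exposure: 48 hours, 5 concentrations, 96-well plates. GI50: concentration for 50% inhibition of growth. TGI denotes the concentration required for complete inhibition of growth.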

As for `C=C(C)C1CCC2=CC(CC3(C)OC3C3=CC(C(=O)OC)=C(C1)O3)OC2=O` (stereo not given), the TGI in the assay with EKVX NSCLC, in the assay with MDA-MB-435, in the assay with SF-295 CNS, in the assay on SNB-19 CNS, with SNB-75 CNS and in the assay on SR leukemia was greater than 100 µM throughout. Besides, the TGI with SW-620 colon and in the assay on UO-31 renal was greater than 100 µM each time.
As for `CCC[CH2][Sn]([CH2]CCC)([O]C(=O)c1cc(F)ccc1F)[O]C(=O)c1cc(F)ccc1F`, the GI50 with EKVX NSCLC is 1.26 µM; in the assay with HCC-2998 colon, 1.43 µM; with SF-295 CNS, 1.77 µM; in the assay on SNB-19 CNS, 1.56 µM; with SNB-75 CNS, 1.13 µM; in the assay with SR leukemia, 0.502 µM. In addition, the values for the GI50 with SW-620 colon, in the assay with UACC-62 melanoma and in the assay with UO-31 renal were 0.619 µM, 1.36 µM and 1.47 µM, respectively. Moreover, the TGI worked out at 2.51 µM in the assay with EKVX NSCLC; 2.76 µM in the assay on HCC-2998 colon; 3.17 µM in the assay with SF-295 CNS; 2.9 µM with SNB-19 CNS; 2.49 µM in the assay on SNB-75 CNS; 8.74 µM in the assay on SR leukemia. The TGI with SW-620 colon was 1.91 µM; in the assay with UACC-62 melanoma it was 2.65 µM; in the assay on UO-31 renal, 2.79 µM.
`NC(=O)C(=O)C1C(=O)N(c2ccccc2)N=C1N` (stereo not given): the TGI in the assay with HCC-2998 colon, with SF-295 CNS, in the assay with SNB-19 CNS, in the assay with SNB-75 CNS, with SR leukemia and with SW-620 colon was greater than 100 µM each time. Further, the TGI in the assay on UACC-62 melanoma and with UO-31 renal was greater than 100 µM each time.
Consider `COc1cc([C@@H]2OC(=O)C3C2C(=O)O[C@H]3c2ccc(O)c(OC)c2)ccc1O` (stereo not given in full), for which the TGI in the assay with HCC-2998 colon, in the assay on SF-295 CNS, in the assay with SNB-19 CNS, with SNB-75 CNS, in the assay on SR leukemia and with SW-620 colon was greater than 100 µM throughout. The TGI with UACC-62 melanoma and in the assay with UO-31 renal was greater than 100 µM throughout.
Regarding `CC(C)N1C(C)[C@@H](c2ccccc2)O[P@@]1(=O)CC1=CCCCC1` (stereo not given in full), the TGI with EKVX NSCLC, in the assay with HCC-2998 colon, in the assay with SF-295 CNS, in the assay with SNB-75 CNS, in the assay on SR leukemia and in the assay on SW-620 colon was greater than 100 µM in each case. The TGI in the assay with UACC-62 melanoma and in the assay on UO-31 renal was greater than 100 µM throughout.
With `O=[N+]([O-])c1cccc(S(=O)(=O)N/N=C/c2cc(I)cc([N+](=O)[O-])c2O)c1`, the TGI was 80 µM in the assay on EKVX NSCLC; greater than 100 µM in the assay on HCC-2998 colon; 98.7 µM in the assay with SF-295 CNS; 65.5 µM in the assay with SNB-19 CNS; 67.2 µM in the assay on SNB-75 CNS; 60.9 µM in the assay on SR leukemia. Besides, the TGI in the assay on SW-620 colon amounted to 58.5 µM; with UACC-62 melanoma, 45.2 µM; in the assay with UO-31 renal, 67.5 µM.
In the case of `CCCCCCCCC(C)CCCCCCCCC(=O)OCC(COP(=O)([O-])OCC[N+](C)(C)C)OC(=O)CCCCCCCCC(C)CCCCCCCC` (stereo not given), the TGI in the assay with EKVX NSCLC, with HCC-2998 colon, with SF-295 CNS, in the assay on SNB-19 CNS, with SNB-75 CNS and in the assay on SR leukemia was greater than 100 µM each time. Moreover, the TGI in the assay on SW-620 colon, with UACC-62 melanoma and with UO-31 renal was greater than 100 µM each time.
For the compound `Cn1c2c(c3ccccc3c1=O)C(=O)c1ccccc1-2`, the TGI in the assay with EKVX NSCLC, in the assay with MDA-MB-435, in the assay on SF-295 CNS, in the assay with SNB-19 CNS, with SNB-75 CNS and in the assay with SR leukemia was greater than 100 µM in each case. For the same compound, the TGI in the assay on SW-620 colon, with UACC-62 melanoma and in the assay on UO-31 renal was greater than 100 µM throughout.
As for `O=C(Nc1ccc([N+](=O)[O-])cc1[N+](=O)[O-])C(=O)C(C(=O)c1ccc(Cl)c(Cl)c1)C1OC(=O)c2ccccc21` (stereo not given), the TGI with EKVX NSCLC was greater than 100 µM; with SF-295 CNS, 40.7 µM; in the assay on SNB-19 CNS, 66.7 µM; in the assay on SNB-75 CNS, greater than 100 µM; in the assay with SR leukemia, greater than 100 µM; with SW-620 colon, 54.6 µM. The figures for the TGI with UACC-62 melanoma and with UO-31 renal were 36 µM and 80.9 µM, respectively.
For `CCCS(=O)c1nc(COC(=O)NC)c(COC(=O)NC)n1C` (stereo not given), the TGI in the assay with EKVX NSCLC, in the assay with HCC-2998 colon, in the assay on SF-295 CNS, with SNB-19 CNS, in the assay with SNB-75 CNS and in the assay with SR leukemia was greater than 100 µM in each case. In addition, the TGI in the assay on SW-620 colon, in the assay on UACC-62 melanoma and in the assay on UO-31 renal was greater than 100 µM each time.
As to `CC(=O)CCc1ccc(Oc2c3c(nc4ccccc24)OCC3)cc1`, the GI50 was 13.8 µM with EKVX NSCLC; 32.5 µM with HCC-2998 colon; greater than 100 µM in the assay with SNB-19 CNS; 14.3 µM in the assay on SNB-75 CNS; 60.2 µM in the assay on SR leukemia; greater than 100 µM in the assay with SW-620 colon. In addition, the GI50 in the assay on UACC-62 melanoma is 34.1 µM; with UO-31 renal, 54.4 µM. Moreover, the TGI was 98.6 µM with EKVX NSCLC; 91.8 µM with HCC-2998 colon; greater than 100 µM in the assay on SNB-19 CNS; 61.7 µM in the assay on SNB-75 CNS; greater than 100 µM with SR leukemia; greater than 100 µM with SW-620 colon. Besides, the TGI in the assay on UACC-62 melanoma and in the assay with UO-31 renal was greater than 100 µM each time.
As to `CCOC(=O)C1=C(O)C(=O)c2ccoc2C1=O`, the TGI in the assay on EKVX NSCLC, in the assay with HCC-2998 colon, in the assay on SF-295 CNS, with SNB-19 CNS, in the assay with SNB-75 CNS and in the assay with SR leukemia was greater than 100 µM in each case. Moreover, the TGI with SW-620 colon, in the assay with UACC-62 melanoma and in the assay with UO-31 renal was greater than 100 µM in each case.
For the compound `COC(=O)C12C34C=CC5(CCC6(C=CC1(CC3)O6)C52C(=O)OC)O4` (stereo not given), the TGI with EKVX NSCLC, in the assay with HCC-2998 colon, in the assay on SF-295 CNS, in the assay on SNB-19 CNS, in the assay with SR leukemia and in the assay on SW-620 colon was greater than 100 µM each time.
In the case of `O=C(COC(=O)c1cccc2c(=O)c3ccccc3[nH]c12)Nc1ccc(Cl)cc1`, the TGI with EKVX NSCLC is greater than 100 µM; in the assay on HCC-2998 colon, greater than 100 µM; with SF-295 CNS, greater than 100 µM; with SNB-19 CNS, greater than 100 µM; with SNB-75 CNS, 78.6 µM; in the assay with SR leukemia, greater than 100 µM. Also, the TGI with SW-620 colon, with UACC-62 melanoma and with UO-31 renal was greater than 100 µM throughout.
Regarding `O=NN1CCN=C1c1ccc([N+](=O)[O-])cc1`, the TGI in the assay with HCC-2998 colon, in the assay with SF-295 CNS, with SNB-19 CNS, in the assay with SNB-75 CNS, in the assay with SR leukemia and in the assay on SW-620 colon was greater than 100 µM throughout. Besides, the TGI in the assay on UACC-62 melanoma and in the assay on UO-31 renal was greater than 100 µM each time.
Consider `CCOC(=O)/C(C#N)=C\Sc1ccccc1`, for which the TGI is greater than 100 µM in the assay on EKVX NSCLC; 48.5 µM in the assay with SF-295 CNS; greater than 100 µM with SNB-19 CNS; 53.9 µM with SNB-75 CNS; 45.2 µM with SR leukemia; 72.6 µM in the assay with SW-620 colon. Besides, the results for the TGI in the assay with UACC-62 melanoma and with UO-31 renal were 42.3 µM and 24.1 µM, respectively.
As to `NCCCC(N=Cc1nc(-c2ccccc2)oc1O)C(=O)O` (stereo not given), the TGI in the assay on EKVX NSCLC, in the assay with HCC-2998 colon, with SF-295 CNS, in the assay with SNB-19 CNS, in the assay on SNB-75 CNS and with SR leukemia was greater than 100 µM each time. The TGI in the assay on SW-620 colon, in the assay with UACC-62 melanoma and with UO-31 renal was greater than 100 µM each time.
Take `COc1ccc(NC(=O)c2oc3cc(O)ccc3c(=O)c2C)c([N+](=O)[O-])c1`: the TGI with EKVX NSCLC, in the assay on HCC-2998 colon, in the assay on SF-295 CNS, in the assay with SNB-19 CNS, with SNB-75 CNS and in the assay with SR leukemia was greater than 100 µM in each case. The TGI with SW-620 colon, in the assay with UACC-62 melanoma and with UO-31 renal was greater than 100 µM each time.
For `O=C1C(Cl)=C(Cl)C(=O)N1c1cccc(C(F)(F)F)c1`, the TGI in the assay on EKVX NSCLC, with HCC-2998 colon, in the assay on SF-295 CNS, in the assay with SNB-19 CNS, in the assay on SNB-75 CNS and with SR leukemia was greater than 100 µM in each case. In addition, the TGI in the assay on SW-620 colon, in the assay with UACC-62 melanoma and in the assay on UO-31 renal was greater than 100 µM in each case.
Turning to `CCCCCCCCCCCCCCCCCCOCC(C[N+]1(C)CCC(O)CC1)OCC` (stereo not given), the TGI in the assay on EKVX NSCLC worked out at 46.3 µM; in the assay with HCC-2998 colon, 31.7 µM; with SF-295 CNS, 17.9 µM; with SNB-19 CNS it was 28.3 µM; with SNB-75 CNS, 19.2 µM; with SR leukemia, 3.73 µM. Moreover, the TGI in the assay with SW-620 colon turned out to be 35.5 µM; in the assay with UACC-62 melanoma, 19.7 µM; with UO-31 renal, 27.5 µM.
With `CC1(C2COC(=O)C2)SCCCS1` (stereo not given), the TGI in the assay on EKVX NSCLC, in the assay with HCC-2998 colon, in the assay on SF-295 CNS, in the assay on SNB-19 CNS, in the assay on SNB-75 CNS and in the assay with SR leukemia was greater than 100 µM each time. The TGI with SW-620 colon was greater than 100 µM; with UACC-62 melanoma it was greater than 100 µM; in the assay with UO-31 renal it was 28.1 µM.
